Key:
[1] = Measurement of particle size distribution of the crystals (HORIBA LA-910) and observation with electron scanning microscope; format: physicochemical; settings: for D10: Cumulative undersize particle diameter at 10% of volumetric ratio / D50: Cumulative undersize particle diameter at 50% of volumetric ratio / D90: Cumulative undersize particle diameter at 90% of volumetric ratio: crystals dispersed with ultrasonic wave in saturated solution of compound A in 0.1 v/v % Polysorbate 80 aqueous solution
Protocol: After a dispersant (10 mL) was added to the crystals of the invention (20 mg) followed by shaking up, the crystals of the invention were dispersed with ultrasonic wave. The particle size distributions of the crystals of the invention were measured by using HORIBA LA-910. The dispersant used is a filtered saturated solution of compound A in 0.1 v/v % Polysorbate 80 aqueous solution. D10: Cumulative undersize particle diameter at 10% of volumetric ratio [μm] D50: Cumulative undersize particle diameter at 50% of volumetric ratio [μm] D90: Cumulative undersize particle diameter at 90% of volumetric ratio [μm] (2) Observation of the Crystals of the Invention with Electron Scanning Microscope The crystals were observed through an electron scanning microscope (HITACHI HIGH TECHNOLOGIES TM-1000 Miniscope).

[2] = target: PGI2 (Homo sapiens, UniProt P43119); settings: background statement, see WO 2002/088084; cited from earlier work
Chain of PGI2 (P43119 whole entry): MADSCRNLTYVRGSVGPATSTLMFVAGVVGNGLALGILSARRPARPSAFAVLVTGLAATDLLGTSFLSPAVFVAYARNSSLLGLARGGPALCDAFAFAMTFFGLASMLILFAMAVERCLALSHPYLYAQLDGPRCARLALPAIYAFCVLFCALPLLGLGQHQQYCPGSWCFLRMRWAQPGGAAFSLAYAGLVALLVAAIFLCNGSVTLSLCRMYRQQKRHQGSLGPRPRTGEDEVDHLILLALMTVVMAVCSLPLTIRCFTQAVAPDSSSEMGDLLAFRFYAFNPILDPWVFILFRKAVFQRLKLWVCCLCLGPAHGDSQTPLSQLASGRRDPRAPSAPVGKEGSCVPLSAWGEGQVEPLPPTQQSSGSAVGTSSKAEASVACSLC

Row | D10: Cumulative undersize particle diameter at 10% of volumetric ratio [1] | D50: Cumulative undersize particle diameter at 50% of volumetric ratio [1] | D90: Cumulative undersize particle diameter at 90% of volumetric ratio [1] | SMILES | particle size compared between crystal forms ([1]; conclusion from particle size distribution and electron scanning micrographs) | PGI2 agonistic effect [2]
1 | 4.3 μm | 8.0 μm | 14.4 μm | CC(C)N(CCCCOCC(=O)NS(C)(=O)=O)c1cnc(-c2ccccc2)c(-c2ccccc2)n1 [Form-III Crystal of the Invention, 2-{4-[N-(5,6-diphenylpyrazin-2-yl)-N-isopropylamino]butyloxy}-N-(methylsulfonyl)acetamide] |  | 
2 | 5.6 μm | 12.8 μm | 25.8 μm | CC(C)N(CCCCOCC(=O)NS(C)(=O)=O)c1cnc(-c2ccccc2)c(-c2ccccc2)n1 [Form-I Crystal of the Invention, 2-{4-[N-(5,6-diphenylpyrazin-2-yl)-N-isopropylamino]butyloxy}-N-(methylsulfonyl)acetamide] | larger than those of Form-II and Form-III crystals | 
3 |  |  |  | CC(C)N(CCCCOCC(=O)NS(C)(=O)=O)c1cnc(-c2ccccc2)c(-c2ccccc2)n1 [Compound A, 2-{4-[N-(5,6-diphenylpyrazin-2-yl)-N-isopropylamino]butyloxy}-N-(methylsulfonyl)acetamide] |  | excellent PGI2 agonistic effect
4 | 5.2 μm | 11.3 μm | 22.0 μm | CC(C)N(CCCCOCC(=O)NS(C)(=O)=O)c1cnc(-c2ccccc2)c(-c2ccccc2)n1 [Form-II Crystal of the Invention, 2-{4-[N-(5,6-diphenylpyrazin-2-yl)-N-isopropylamino]butyloxy}-N-(methylsulfonyl)acetamide] |  | 

Reference: patent US9284280B2, “Use of form-I crystal of 2-{4-[N-(5,6-diphenylpyrazin-2-yl)-N-isopropylamino]butyloxy}-N-(methylsulfonyl)acetamide” (NIPPON SHINYAKU CO., LTD., priority 2009, dated 2016)
